Data taken from article PMC8809408 (Frontiers in Pharmacology, 2022).
“Also recorded” adds a separate entry of the source. Like-named read-outs stand apart in the source and are kept apart here.

What was measured:
[1] = system: SARS-CoV-2 (B.1); format: cell-based
[2] = system: HEK293T-ACE2-TMPRSS2 cells
[3] = system: Calu-1 cells
[4] = system: Sigma-1 receptor (S1R); conditions: cited from earlier work
[5] = in vitro; conditions: human
[6] = system: SARS-CoV-2 B.1.1.7 (alpha); format: cell-based
[7] = system: SARS-CoV-2 B.1.351 (beta); format: cell-based
[8] = system: SARS-CoV-2 B.1.617.2 (delta); format: cell-based
[9] = system: ACE2; format: cell-based, human
[10] = system: TMPRSS2; format: cell-based, human
[11] = system: ACE2; format: cell-based, human; remark: listed apart in the source
[12] = system: TMPRSS2; format: cell-based, human; remark: listed apart in the source
[13] = system: COVID-19; conditions: COVID-19 patients, treatment for 20 days ref Hoertel, et al., 2021b; cited from earlier work
[14] = samples collected from pilot fatalities ref Johnson et al., 2007; cited from earlier work
[15] = system: Zaire Ebola virus (EBOV); conditions: cited from earlier work
[16] = system: S2R; conditions: ref Robson et al., 2012; cited from earlier work
[17] = system: COVID-19; conditions: follow up randomized controlled trial ref Reis et al., 2021; cited from earlier work
[18] = ref Narita et al., 1996, Sukhatme et al., 2021

Row | SMILES | genome copies of SARS-CoV-2 (qRT-PCR) [1] | infectious virus particles (TCID50 assay) [1] | cell viability (ATP level) in non-infected and infected cells [2] | viability of infected Calu-1 cells (ATP level) [3] | binding to S1R [4, 18] | CC50 [5] [µM] | further results
1 | CN(C)CCCN1c2ccccc2CCc2ccccc21 [Imipramine] | reducing the genome copies | failed to effect the TCID50 | Reduction | All compounds, except for imipramine, decreased the cell viability | bind to S1R | 68.6 | cell viability (ATP level) [2]: reduced ATP levels
2 | CNCCCN1c2ccccc2CCc2ccccc21 [Desipramine] | – | – | Reduction | – | bind to S1R | 68.9 | –
3 | CNCCC(Oc1ccc(C(F)(F)F)cc1)c1ccccc1 (stereo not shown) [Fluoxetine] | clearly reduced | clearly reduced | Reduction | decreased the cell viability | bind to S1R | 41.5 | TCID50 (infectious virus) [6]: reduced; genome copy number (qRT-PCR) [6]: reduced; TCID50 (infectious virus) [7]: reduced; genome copy number (qRT-PCR) [7]: reduced; TCID50 (infectious virus) [8]: reduced; genome copy number (qRT-PCR) [8]: reduced; ACE2 mRNA level [9]: remained unaltered; TMPRSS2 mRNA level [10]: increased; ACE2 protein level [11]: does not exert any effect on the ACE2 expression; TMPRSS2 protein level [12]: significantly increased; also recorded: Despite not being statistically significant, fluoxetine also increased TMPRSS2; Calu-1 viability (ATP levels) ([3]; human): slightly reduced the Calu-1 viability; risk of intubation or death by COVID-19 [13]: reduce the risk of intubation or death; mean concentration of fluoxetine in lungs [14]: 19.6 µg/g
4 | CN(C)CCCN1c2ccccc2CCc2ccc(Cl)cc21 [Clomipramine] | clearly reduced | clearly reduced | Reduction | decreased the cell viability | – | 65.7 | ACE2 mRNA level [9]: induced a reduction of this target; TMPRSS2 mRNA level [10]: remained ineffective; Zaire Ebola virus (EBOV) entry to target cells [15]: reduce the Zaire Ebola virus (EBOV) entry
5 | CCOc1ccccc1OC(c1ccccc1)C1CNCCO1 (stereo not shown) [Reboxetine] | clearly reduced | clearly reduced | – | – | – | – | –
6 | CN[C@H]1CC[C@@H](c2ccc(Cl)c(Cl)c2)c2ccccc21 [sertraline] | – | – | – | – | bind to S1R | – | Zaire Ebola virus (EBOV) entry to target cells [15]: reduce the Zaire Ebola virus (EBOV) entry
7 | Fc1ccc([C@@H]2CCNC[C@H]2COc2ccc3c(c2)OCO3)cc1 [Paroxetine] | – | – | Reduction | – | bind to S1R | 22.1 | Zaire Ebola virus (EBOV) entry to target cells [15]: reduce the Zaire Ebola virus (EBOV) entry
8 | COc1ccc(C(CN(C)C)C2(O)CCCCC2)cc1 (stereo not shown) [Venlafaxine] | ineffective | ineffective | – | decreased the cell viability | – | – | CC50 [2]: No fitting; cell viability (ATP level) [2]: all the compounds, except (E) venlafaxine and (F) reboxetine reduced ATP levels; risk of intubation or death by COVID-19 [13]: reduce the risk of intubation or death; affinity to S1R ([4]; ref Ishima et al., 2014): very weak affinity
9 | CN(C)CCC[C@@]1(c2ccc(F)cc2)OCc2cc(C#N)ccc21 [escitalopram] | – | – | – | – | – | – | risk of intubation or death by COVID-19 [13]: reduce the risk of intubation or death
10 | O=c1[nH]c2ccccc2n1C1CCN(CCCC(c2ccc(F)cc2)c2ccc(F)cc2)CC1 [Pimozide] | – | – | Reduction | – | – | 15 | –
11 | CNC1(c2ccccc2Cl)CCCCC1=O (stereo not shown) [Ketamine] | – | – | – | – | – | – | binding to S1R ([4]; ref Robson et al., 2012): can bind to both S1R and S2R; binding to S2R [16]: can bind to both S1R and S2R
12 | CN(C)CCCN1c2ccccc2Sc2ccc(Cl)cc21 [Chlorpromazine] | – | – | Reduction | slight but significant reduction in the viability | – | 15.9 | amount of infectious virus (TCID50 assay) [1]: failed to observe diminished amount of infectious virus; total amount of virus / genome copy number (qRT-PCR) [1]: able to reduce the total amount of virus; ACE2 mRNA level [9]: induced a reduction of this target; TMPRSS2 mRNA level [10]: remained ineffective
13 | COCCCC/C(=N\OCCN)c1ccc(C(F)(F)F)cc1 [Fluvoxamine] | – | – | Reduction | – | bind to S1R | 75.3 | hospitalization risk due to COVID-19 [17]: helps with the reduction of hospitalization risk
14 | CN(C)CCCC1(c2ccc(F)cc2)OCc2cc(C#N)ccc21 (stereo not shown) [Citalopram] | clearly reduced | clearly reduced | Reduction | decreased the cell viability | bind to S1R | 274 | –
15 | OCCN1CCN(CCC=C2c3ccccc3Sc3ccc(C(F)(F)F)cc32)CC1 [Flupenthixol] | – | – | Reduction | – | – | 19.4 | –
